Patent US20250304576A1 (Cancer Research Technology Limited, priority 2022, published 2025)

Experiments:
Recombinant IKKα = target: T1, Recombinant IKKα (Homo sapiens, UniProt O15111); assay: DELFIA IKKα kinase assay (apparent Ki, Cheng-Prusoff); format: biochemical
T1 construct: purchased Millipore, Dundee, UK
T1 sequence (O15111 1-745): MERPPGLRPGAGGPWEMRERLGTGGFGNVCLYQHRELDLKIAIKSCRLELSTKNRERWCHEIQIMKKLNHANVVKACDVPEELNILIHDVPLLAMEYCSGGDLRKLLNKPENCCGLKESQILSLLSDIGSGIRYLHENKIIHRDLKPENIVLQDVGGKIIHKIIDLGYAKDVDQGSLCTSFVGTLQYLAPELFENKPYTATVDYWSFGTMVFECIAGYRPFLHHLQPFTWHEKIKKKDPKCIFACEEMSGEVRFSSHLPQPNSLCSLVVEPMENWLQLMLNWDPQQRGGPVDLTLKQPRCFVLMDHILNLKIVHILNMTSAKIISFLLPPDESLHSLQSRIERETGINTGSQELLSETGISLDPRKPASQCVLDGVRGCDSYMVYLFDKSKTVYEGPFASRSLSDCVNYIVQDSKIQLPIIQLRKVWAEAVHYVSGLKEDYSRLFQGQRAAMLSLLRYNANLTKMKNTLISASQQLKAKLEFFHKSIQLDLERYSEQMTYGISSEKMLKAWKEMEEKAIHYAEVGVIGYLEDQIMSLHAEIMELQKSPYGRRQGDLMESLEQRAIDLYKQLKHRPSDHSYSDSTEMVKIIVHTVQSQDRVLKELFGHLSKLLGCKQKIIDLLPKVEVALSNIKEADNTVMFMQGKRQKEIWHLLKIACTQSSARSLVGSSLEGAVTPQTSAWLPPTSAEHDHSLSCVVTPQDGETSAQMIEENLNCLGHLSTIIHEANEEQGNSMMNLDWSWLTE
Summary of the method: (§1)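 DELFIA time-resolved fluorescence (ex 340/em 615 nm) quantified phosphorylation of a biotinylated IκB-α Ser32 peptide (0.375 μM) by 37 nM recombinant IKKα or IKKβ. Reactions used 40 μM ATP, Tris pH 7.5 buffer with MgCl2, DTT and BSA, 60 min at 30° C. Cheng-Prusoff equation gave apparent Ki.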

Recombinant IKKβ = target: T2, Recombinant IKKβ (Homo sapiens, UniProt O14920); assay: DELFIA IKKβ kinase assay (apparent Ki, Cheng-Prusoff); format: biochemical
T2 construct: purchased Millipore, Dundee, UK
T2 sequence (O14920 1-756): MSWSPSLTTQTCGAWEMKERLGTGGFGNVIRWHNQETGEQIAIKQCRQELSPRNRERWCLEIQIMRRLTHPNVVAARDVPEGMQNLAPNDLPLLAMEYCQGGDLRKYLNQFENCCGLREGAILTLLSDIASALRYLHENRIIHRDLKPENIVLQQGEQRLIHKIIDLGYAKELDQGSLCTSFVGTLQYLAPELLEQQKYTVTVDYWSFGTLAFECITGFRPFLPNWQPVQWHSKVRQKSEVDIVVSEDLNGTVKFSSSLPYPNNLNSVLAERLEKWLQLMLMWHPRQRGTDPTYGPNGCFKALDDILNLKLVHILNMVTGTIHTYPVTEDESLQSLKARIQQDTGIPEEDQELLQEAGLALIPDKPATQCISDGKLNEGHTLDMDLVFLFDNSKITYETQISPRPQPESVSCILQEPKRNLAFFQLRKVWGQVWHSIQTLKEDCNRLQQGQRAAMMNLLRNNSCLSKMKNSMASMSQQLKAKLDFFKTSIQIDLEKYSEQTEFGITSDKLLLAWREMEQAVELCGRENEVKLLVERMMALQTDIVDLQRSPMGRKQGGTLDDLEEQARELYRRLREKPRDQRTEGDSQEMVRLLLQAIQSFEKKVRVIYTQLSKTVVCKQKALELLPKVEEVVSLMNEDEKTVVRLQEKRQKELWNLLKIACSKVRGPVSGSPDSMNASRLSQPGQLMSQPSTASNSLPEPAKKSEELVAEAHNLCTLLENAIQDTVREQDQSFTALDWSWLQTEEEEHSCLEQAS
Summary of the method: as §1

[1] = DELFIA assay (first line of an example)
[2] = non-italicised figure: DELFIA assay

Row | Ki (Recombinant IKKα; [1]) | Ki (Recombinant IKKβ; [1]) | Ki (Recombinant IKKα; [2]) | Ki (Recombinant IKKβ; [2]) | Compound
1 | 3 nM | 130 nM | – | – | CC(C)CCNC(=O)c1cc2c(-c3ccc4[nH]nc(N)c4c3)ccnc2[nH]1 [Example 237, 4-(3-amino-1H-indazol-5-yl)-N-isopentyl-1H-pyrrolo[2,3-b]pyridine-2-carboxamide]
2 | – | – | 47 nM | 721 nM | COC(=O)Nc1cc(-c2cc(C#CCN3CCOCC3)c3[nH]nc(N)c3c2)ccn1 [Example 183, Methyl (4-(3-amino-7-(3-morpholinoprop-1-yn-1-yl)-1H-indazol-5-yl)pyridin-2-yl)carbamate]
3 | 96 nM | 1090 nM | – | – | Nc1n[nH]c2c(C#CC3(O)CCCC3)cc(-c3ccnc(NC4COC4)c3)cc12 [Example 305, 1-((3-Amino-5-(2-(oxetan-3-ylamino)pyridin-4-yl)-1H-indazol-7-yl)ethynyl)cyclopentan-1-ol]
4 | 37 nM | 376 nM | – | – | Nc1n[nH]c2c(Cl)cc(-c3ccnc4[nH]c(CC5CCCCC5)cc34)cc12 [Example 275, 7-Chloro-5-(2-(cyclohexylmethyl)-1H-pyrrolo[2,3-b]pyridin-4-yl)-1H-indazol-3-amine]
5 | – | – | 38 nM | 838 nM | Nc1n[nH]c2ccc(-c3ccnc(NC(=O)NCc4ccccn4)c3)cc12 [Example 47, 1-(4-(3-Amino-1H-indazol-5-yl)pyridin-2-yl)-3-(pyridin-2-ylmethyl)urea]
6 | 113 nM | 19300 nM | – | – | CC(C)(C)C#Cc1cc(-c2ccnc(NC(=O)Nc3ccccc3)c2)cc2c(N)n[nH]c12 [Example 189, 1-(4-(3-Amino-7-(3,3-dimethylbut-1-yn-1-yl)-1H-indazol-5-yl)pyridine-2-yl)-3-phenylurea]
7 | – | – | 15 nM | 784 nM | CC(C)(C)C#Cc1cc(-c2ccnc(NC3COC3)c2)cc2c(N)n[nH]c12 [Example 155, 7-(3,3-Dimethylbut-1-yn-1-yl)-5-(2-(oxetan-3-ylamino)pyridin-4-yl)-1H-indazol-3-amine]
8 | – | – | 12 nM | 293 nM | Nc1n[nH]c2ccc(-c3ccnc(NC(=O)Nc4ccccc4)c3)cc12 [Example 50, 1-(4-(3-Amino-1H-indazol-5-yl)pyridin-2-yl)-3-phenylurea]
9 | 47 nM | 331 nM | – | – | Nc1n[nH]c2c(C#Cc3ccccc3)cc(-c3ccnc4[nH]c(CCN5CCOCC5)cc34)cc12 [Example 281, 5-(2-(2-Morpholinoethyl)-1H-pyrrolo[2,3-b]pyridin-4-yl)-7-(phenylethynyl)-1H-indazol-3-amine]
10 | 30 nM | 1630 nM | – | – | CN(C)CCNCc1cc2c(-c3ccc4[nH]nc(N)c4c3)ccnc2[nH]1 [Example 255, N^1-((4-(3-Amino-1H-indazol-5-yl)-1H-pyrrolo[2,3-b]pyridin-2-yl)methyl)-N2,N2-dimethylethane-1,2-diamine]
11 | – | – | 120 nM | 1690 nM | CC(C)(C)C#Cc1cc(-c2ccnc(NC3CCC3)c2)cc2c(N)n[nH]c12 [Example 154, 5-(2-(Cyclobutylamino)pyridin-4-yl)-7-(3,3-dimethylbut-1-yn-1-yl)-1H-indazol-3-amine]
12 | 318 nM | 4040 nM | – | – | Cc1noc(C)c1Nc1cc(-c2cc(C#CC(C)(C)C)c3[nH]nc(N)c3c2)ccn1 [Example 317, N-(4-(3-amino-7-(3,3-dimethylbut-1-yn-1-yl)-1H-indazol-5-yl)pyridin-2-yl)-3,5-dimethylisoxazol-4-amine]
13 | 4 nM | 65 nM | – | – | Nc1n[nH]c2ccc(-c3ccnc4[nH]c(CCCNC5CCCCC5)cc34)cc12 [Example 270, 5-(2-(3-(Cyclohexylamino)propyl)-1H-pyrrolo[2,3-b]pyridin-4-yl)-1H-indazol-3-amine]
14 | 9 nM | 419 nM | – | – | COC(=O)c1cc2c(-c3ccc4[nH]nc(N)c4c3)ccnc2[nH]1 [Example 231, Methyl 4-(3-amino-1H-indazol-5-yl)-1H-pyrrolo[2,3-b]pyridine-2-carboxylate]
15 | – | – | 186 nM | 4610 nM | Nc1cc(-c2cc(C#CCCO)c3[nH]nc(N)c3c2)ccn1 [Example 139, 4-(3-Amino-5-(2-aminopyridin-4-yl)-1H-indazol-7-yl)but-3-yn-1-ol]
16 | – | – | 76 nM | 2510 nM | CC(C)OCCCNc1cc(-c2ccc3[nH]nc(N)c3c2)ccn1 [Example 27, 5-(2-((3-Isopropoxypropyl)amino)pyridin-4-yl)-1H-indazol-3-amine]
17 | – | – | 228 nM | > 10000 nM | Nc1n[nH]c2ccc(-c3ccnc(NC(=O)NC4CCCCC4)c3)cc12 [Example 40, 1-(4-(3-Amino-1H-indazol-5-yl)pyridin-2-yl)-3-cyclohexylurea]
18 | – | – | 114 nM | 670 nM | Nc1n[nH]c2ccc(-c3ccnc(NC(=O)NCCCO)c3)cc12 [Example 42, 1-(4-(3-Amino-1H-indazol-5-yl)pyridin-2-yl)-3-(3-hydroxypropyl)urea]
19 | 21 nM | 268 nM | – | – | Nc1n[nH]c2c(C#CCCCC(=O)O)cc(-c3ccnc4[nH]ccc34)cc12 [Example 214, 6-(3-Amino-5-(1H-pyrrolo[2,3-b]pyridin-4-yl)-1H-indazol-7-yl)hex-5-ynoic acid]
20 | – | – | 298 nM | 23800 nM | CC(C)(C)C#Cc1cc(-c2ccnc(NC(=O)C3CCCC3)c2)cc2c(N)n[nH]c12 [Example 173, N-(4-(3-Amino-7-(3,3-dimethylbut-1-yn-1-yl)-1H-indazol-5-yl)pyridin-2-yl)cyclopentanecarboxamide]
21 | – | – | 19 nM | 537 nM | Nc1nccc(-c2ccc3[nH]nc(N)c3c2)c1C#CCCC(=O)c1ccccc1 [Example 82, 5-(2-Amino-4-(3-amino-1H-indazol-5-yl)pyridine-3-yl)-1-phenylpent-4-yn-1-one]
22 | – | – | 571 nM | 5030 nM | Cc1cc(S(N)(=O)=O)ccc1-c1cc(-c2ccnc(N)c2)cc2c(N)n[nH]c12 [Example 126, 4-(3-Amino-5-(2-aminopyridin-4-yl)-1H-indazol-7-yl)-3-methylbenzenesulfonamide]
23 | – | – | 89 nM | 3330 nM | CC(C)(C)C#Cc1cc(-c2ccnc(NC(=O)C3CCC3)c2)cc2c(N)n[nH]c12 [Example 172, N-(4-(3-Amino-7-(3,3-dimethylbut-1-yn-1-yl)-1H-indazol-5-yl)pyridin-2-yl)cyclobutanecarboxamide]
24 | – | – | 48 nM | 1720 nM | Nc1n[nH]c2ccc(-c3ccnc(NC(=O)Nc4ccc(Cl)cc4)c3)cc12 [Example 63]
25 | > 10000 nM | > 10000 nM | – | – | CC(C)(C)C#Cc1cc(-c2cc(N)ncc2C#N)cc2c(N)n[nH]c12 [Example 336, 6-Amino-4-(3-amino-7-(3,3-dimethylbut-1-yn-1-yl)-1H-indazol-5-yl)nicotinonitrile]
26 | 29 nM | 193 nM | – | – | CCCCN(CC)CCNC(=O)c1cc2c(-c3ccc4[nH]nc(N)c4c3)ccnc2[nH]1 [Example 245, 4-(3-Amino-1H-indazol-5-yl)-N-(2-(butyl(ethyl)amino)ethyl)-1H-pyrrolo[2,3-b]pyridine-2-carboxamide]
27 | – | – | 20 nM | 838 nM | CCNC(=O)Nc1cc(-c2ccc3[nH]nc(N)c3c2)ccn1 [Example 36, 1-(4-(3-Amino-1H-indazol-5-yl)pyridine-2-yl)-3-ethylurea]
28 | – | – | 43 nM | 612 nM | Nc1cc(-c2cc(-c3ccsc3)c3[nH]nc(N)c3c2)ccn1 [Example 130, 5-(2-Aminopyridin-4-yl)-7-(thiophen-3-yl)-1H-indazol-3-amine]
29 | – | – | 42 nM | 1190 nM | Nc1n[nH]c2ccc(-c3ccnc(NC(=O)Nc4cccnc4)c3)cc12 [Example 69, 1-(4-(3-Amino-1H-indazol-5-yl)pyridin-2-yl)-3-(pyridin-3-yl)urea]
